From PubChem BioAssay (NCI) come the findings set out here.

Several values for one entry are separate records, joined by “and”; a condition that tells them apart may be missing. Equal values may be shown once.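 Cultured in 96-well plates, cells were exposed to test compound for 48 hours across five concentrations. At the GI50, growth is halved. TGI: total growth inhibition.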

Test systems include BT-549 breast; CAKI-1 renal; HOP-92 NSCLC; HS 578T breast; HT29 colon; PC-3 prostate; SF-295 CNS; SF-539 CNS; SNB-19 CNS; UACC-257 melanoma.
Common to all, as to test: NCI tumour cell line growth inhibition, 48 h

On to `COc1ccc(NC(=O)n2nc(/C=C\c3ccc(O)c(OC)c3)cc2/C=C\c2ccc(O)c(OC)c2)cc1`, for which the GI50 in the assay on BT-549 breast is 2.49 µM; with CAKI-1 renal, 3.6 µM; with HOP-92 NSCLC, 7.77 µM; with HS 578T breast, 6.77 µM; with HT29 colon, 3.52 µM; in the assay with PC-3 prostate it was 5.11 µM. Moreover, the GI50 in the assay on SF-295 CNS was 6.25 µM; in the assay with SF-539 CNS it was 2.35 µM; in the assay on SNB-19 CNS it was 5.28 µM; in the assay on UACC-257 melanoma, 16.7 µM. The TGI in the assay on BT-549 breast was 29.5 µM; with CAKI-1 renal, over 100 µM; in the assay on HOP-92 NSCLC, over 100 µM; with HS 578T breast, 61.9 µM; in the assay on HT29 colon, 11 µM; in the assay with PC-3 prostate, over 100 µM. Also, the TGI is 53.2 µM in the assay with SF-295 CNS, 13.6 µM in the assay with SF-539 CNS, 86.7 µM with SNB-19 CNS and 64.8 µM in the assay with UACC-257 melanoma.
For the compound `CCOC(=O)c1c2c(n(Cc3ccccc3)c1C)-c1nc(Cc3ccccc3)[nH]c1C(=O)C2=O`, the GI50 was 1.43 µM in the assay with BT-549 breast; 0.673 µM in the assay with CAKI-1 renal; 1.17 µM with HOP-92 NSCLC; 2.26 µM with HS 578T breast; 1.64 µM in the assay on HT29 colon; 1.45 µM in the assay on PC-3 prostate. Besides, the GI50 with SF-295 CNS was 1.92 µM; in the assay with SF-539 CNS, 1.77 µM; in the assay on SNB-19 CNS it was 1.72 µM; in the assay on UACC-257 melanoma it was 2.82 µM. Also, the TGI with BT-549 breast came out at 2.99 µM; in the assay on CAKI-1 renal it was 2.18 µM; in the assay on HOP-92 NSCLC, 2.45 µM; in the assay on HS 578T breast, 5.34 µM; in the assay with HT29 colon, 3 µM; in the assay on PC-3 prostate, 3.2 µM. Also, the TGI was 4.14 µM in the assay on SF-295 CNS, 3.3 µM in the assay with SF-539 CNS, 3.09 µM with SNB-19 CNS and 8.71 µM in the assay with UACC-257 melanoma.
With `Nc1nc(N)nc(CC(=O)O)n1`, the TGI in the assay on BT-549 breast, with CAKI-1 renal, in the assay with HOP-92 NSCLC, with HS 578T breast, with HT29 colon and in the assay on PC-3 prostate was over 100 µM in each case. Moreover, the TGI in the assay with SF-295 CNS, in the assay with SF-539 CNS, with SNB-19 CNS and in the assay with UACC-257 melanoma was over 100 µM in each case.
As for `CSc1nsc(S/C=C\C(=O)c2ccc(C)cc2)n1`, the GI50 in the assay with BT-549 breast was 17.5 µM; in the assay with CAKI-1 renal, 21.8 µM; in the assay on HOP-92 NSCLC, 17.3 µM; with HS 578T breast, 0.187 µM; in the assay with HT29 colon it was 19 µM; in the assay with PC-3 prostate, 29 µM. The GI50 with SF-295 CNS is 18.2 µM; with SF-539 CNS it was 19 µM; in the assay with SNB-19 CNS it was 28.1 µM; in the assay with UACC-257 melanoma, 22.6 µM. The TGI with BT-549 breast is 40.3 µM; with CAKI-1 renal, 51.5 µM; in the assay with HOP-92 NSCLC, 35.1 µM; in the assay on HS 578T breast, 6.33 µM; in the assay with HT29 colon, over 57.1 µM; in the assay on PC-3 prostate, over 57.6 µM. The TGI with SF-295 CNS is 40.4 µM; with SF-539 CNS, 36.2 µM; in the assay on SNB-19 CNS it was over 68.2 µM; in the assay with UACC-257 melanoma, 49.2 µM.
On to `Oc1c(Cl)cc(Cl)cc1Sc1cc(Cl)cc(Cl)c1O`, for which the GI50 was 2.81 µM in the assay with BT-549 breast; 2.65 µM and 2.04 µM in the assay on CAKI-1 renal; 1.65 µM in the assay on HOP-92 NSCLC; 2.47 µM and 2.32 µM with HS 578T breast; 3.71 µM and 2.22 µM in the assay on HT29 colon; 3.21 µM and 2.89 µM in the assay on PC-3 prostate. Moreover, the GI50 in the assay with SF-295 CNS is 2.33 µM and 2.34 µM; in the assay with SF-539 CNS, 3.46 µM and 3.4 µM; in the assay on SNB-19 CNS it was 4.84 µM and 3.23 µM; in the assay with UACC-257 melanoma, 2.65 µM and 1.94 µM. Further, the TGI is 8.09 µM in the assay on BT-549 breast; 9.13 µM and 5.93 µM in the assay on CAKI-1 renal; 4.47 µM and 4.65 µM in the assay on HOP-92 NSCLC; 9.48 µM and 8.31 µM with HS 578T breast; 10.9 µM and 6.25 µM in the assay on HT29 colon; 10.5 µM and 12.9 µM in the assay on PC-3 prostate. Also, the TGI is 6.47 µM and 6.51 µM in the assay on SF-295 CNS; 16.1 µM and 11.8 µM in the assay with SF-539 CNS; 32.2 µM and 14.2 µM with SNB-19 CNS; 7.86 µM and 5.71 µM in the assay with UACC-257 melanoma.
As to `C[C@]12CC[C@@H](OC(=O)N(CCCl)N=O)C[C@@H]1CC[C@@H]1[C@@H]2CC[C@]2(C)C(=O)CC[C@@H]12`, the GI50 in the assay on BT-549 breast was 14.2 µM; in the assay on CAKI-1 renal, 1.67 µM; with HOP-92 NSCLC, 6.79 µM; in the assay on HS 578T breast, 3.04 µM; in the assay on HT29 colon it was 3.26 µM; with PC-3 prostate it was 11.5 µM. The GI50 was 0.308 µM with SF-295 CNS, 0.33 µM in the assay on SF-539 CNS, 0.526 µM in the assay on SNB-19 CNS and 3.99 µM with UACC-257 melanoma. The TGI was 33.2 µM with BT-549 breast; 20.7 µM with CAKI-1 renal; 35.9 µM in the assay on HOP-92 NSCLC; 17.9 µM with HS 578T breast; 15.9 µM in the assay on HT29 colon; over 96 µM in the assay with PC-3 prostate. For the same compound, the TGI with SF-295 CNS is over 51.1 µM; with SF-539 CNS, 13.4 µM; in the assay with SNB-19 CNS, 26 µM; with UACC-257 melanoma, 23.9 µM.
In the case of `CCn1c(=O)c2c3ccc(OC(C)=O)cc3[nH]c2c2ccc(OC(C)=O)cc21`, the TGI with BT-549 breast, with CAKI-1 renal, in the assay on HOP-92 NSCLC, in the assay on HS 578T breast, in the assay with HT29 colon and in the assay on PC-3 prostate was over 100 µM throughout. Further, the TGI with SF-295 CNS, with SF-539 CNS, in the assay with SNB-19 CNS and in the assay with UACC-257 melanoma was over 100 µM each time.
